The values below come from patent US20220389013A1, “PYRIDOPYRIMIDINONE COMPOUNDS AND APPLICATIONS THEREOF” (BeBetter Med Inc., priority 2020, published 2022).

pIC50: −log10 of the molar value. Where only a bound is given, the exact number is not on record here.

One assay concerns H358 (KRAS G12C). The experiment in a line: Tumor cell proliferation inhibition assay (CellTiter-Glo), H358. In kind it is cell-based, Human. The note with it: 10% fetal bovine serum. The protocol:
(§1) The H358, H23 or MIA-Paca2 cells were digested, centrifuged and resuspended, and the cell density was measured with a Scepter automatic cell counter. Cells were diluted to a solution containing 44,000 cells per milliliter, then added to a 96-well culture plate at 90 μL per well. The 96-well plate was placed in a 5% CO2 incubator at 37° C., and after the cells were cultured for 24 hours, different concentrations of the compounds to be tested were added. Cells were incubated with compounds in the presence of 10% fetal bovine serum for 72 hours. The inhibition of cell growth was assessed by measuring ATP levels by using the CellTiter-Glo Luminescent Cell Viability Assay Kit (details in manufacturer's instructions). In brief, 30 μL of CellTiter-Glo reagent was added to each well and the plate was shaken for 10 minutes to induce cell lysis, then the fluorescent signal was detected and recorded with a Fluoroskan Ascent FL (Thermo). Maximum signal values were obtained from cells treated with DMSO for 72 hours. Minimum signal values were obtained with medium only (zero cell number). Inhibition rate %=(maximum signal value-compound signal value)/(maximum signal value-minimum signal value)×100%. Data were processed by using Graphpad prism5 software. IC50 values were calculated using a sigmoidal dose-response curve.
(In ATP-based viability assays light output follows the ATP content of the culture.)

The next assay concerns MIA-Paca2 (KRAS G12C). In words: Tumor cell proliferation inhibition assay (CellTiter-Glo), MIA-Paca2. In kind it is cell-based, Human. As to conditions: 10% fetal bovine serum. The protocol:
as §1

In general, pIC50 refers to the IC50 on a negative log10 scale, so that one unit is a factor of ten. The low end stands for a large IC50, the high end for a small IC50. For `C=CC(=O)N1CCN(c2nc(=O)n(-c3c(C)ccnc3C(C)C)c3nc(-c4c(F)ccc5ccoc45)c(F)cc23)C[C@@H]1CC#N` (atropisomer, axis not shown; (M)) [Compound 100-1, 2-((2S)-1-acryloyl-4-(6-fluoro-7-(6-fluorobenzofuran-7-yl)-1(M)-(2-isopropyl-4-methylpyridin-3-yl)-2-oxo-1,2-dihydropyrido[2,3-d]pyrimidin-4-yl)piperazin-2-yl)acetonitrile], the pIC50 in the assay with H358 (KRAS G12C) (Homo sapiens, NCI-H358, 72 h) was 6.30 to 7.00.

As to `C=CC(=O)N1CCN(c2nc(=O)n(-c3c(C)ccnc3C(C)C)c3nc(-c4c(F)ccc5ccoc45)c(Cl)cc23)C[C@@H]1CC#N` (atropisomer, axis not shown; (M)) [Compound 101-1, 2-((2S)-1-acryloyl-4-(6-chloro-7-(6-fluorobenzofuran-7-yl)-1(M)-(2-isopropyl-4-methylpyridin-3-yl)-2-oxo-1,2-dihydropyrido[2,3-d]pyrimidin-4-yl)piperazin-2-yl)acetonitrile], the pIC50 in the assay with H358 (KRAS G12C) (Homo sapiens, NCI-H358, 72 h) was 7.30 to 8.00.

Regarding `C=CC(=O)N1C[C@H](C)N(c2nc(=O)n(-c3c(C)ccnc3C(C)C)c3nc(-c4c(F)ccc5ccoc45)c(F)cc23)C[C@H]1C` (atropisomer, axis not shown; (P)) [Compound 89-2, 4-((2S,5R)-4-acryloyl-2,5-dimethylpiperazin-1-yl)-6-fluoro-7-(6-fluorobenzofuran-7-yl)-1(P)-(2-isopropyl-4-methylpyridin-3-yl)pyrido[2,3-d]pyrimidin-2(1H)-one], the pIC50 in the assay with H358 (KRAS G12C) (72 hours) was 7.96; in the assay on MIA-Paca2 (KRAS G12C) (72 hours) it was under 6.30.

In the case of `C=CC(=O)N1CCN(c2nc(=O)n(-c3c(C)ccnc3C(C)C)c3nc(-c4c(F)ccc5c4OCCO5)c(F)cc23)[C@@H](C)C1` [Compound 72, 4-((S)-4-acryloyl-2-methylpiperazin-1-yl)-6-fluoro-7-(6-fluoro-2,3-dihydrobenzo[b][1,4]dioxin-5-yl)-1-(2-isopropyl-4-methylpyridin-3-yl)pyrido[2,3-d]pyrimidin-2(1H)-one], the pIC50 with H358 (KRAS G12C) (Homo sapiens, NCI-H358, 72 h) was 7.30 to 8.00; with MIA-Paca2 (KRAS G12C) (Homo sapiens, MIA PaCa-2, 72 h), 7.30 to 8.00.

Consider `C=CC(=O)N1CCN(c2nc(=O)n(-c3c(C)ccnc3C(C)C)c3nc(-c4cccc5cc[nH]c45)c(F)cc23)[C@@H](C)C1` [Compound 82, (S)-4-(4-acryloyl-2-methylpiperazin-1-yl)-6-fluoro-7-(1H-indol-7-yl)-1-(2-isopropyl-4-methylpyridin-3-yl)pyrido[2,3-d]pyrimidin-2(1H)-one], for which the pIC50 was 9.00 with H358 (KRAS G12C) (Homo sapiens, NCI-H358, 72 h) and under 6.30 in the assay on MIA-Paca2 (KRAS G12C) (Homo sapiens, MIA PaCa-2, 72 h).

Take `C=CC(=O)N1CCN(c2nc(=O)n(-c3c(C)ccnc3C(C)C)c3nc(-c4c(F)ccc5c4OCCO5)c(Cl)cc23)[C@@H](C)C1` [Compound 98, 4-((S)-4-acryloyl-2-methylpiperazin-1-yl)-6-chloro-7-(6-fluoro-2,3-dihydrobenzo[b][1,4]dioxin-5-yl)-1-(2-isopropyl-4-methylpyridin-3-yl)pyrido[2,3-d]pyrimidin-2(1H)-one]: the negative logarithm of the IC50 (pIC50) with H358 (KRAS G12C) (Homo sapiens, NCI-H358, 72 h) is over 8.00; in the assay on MIA-Paca2 (KRAS G12C) (Homo sapiens, MIA PaCa-2, 72 h), 7.30 to 8.00.

For `C=CC(=O)N1CCN(c2nc(=O)n(-c3c(C)ccnc3C(C)C)c3nc(-c4c(Cl)ccc5ccoc45)c(Cl)cc23)[C@@H](C)C1` [Compound 105, 4-((S)-4-acryloyl-2-methylpiperazin-1-yl)-6-chloro-7-(6-chlorobenzofuran-7-yl)-1-(2-isopropyl-4-methylpyridin-3-yl)pyrido[2,3-d]pyrimidin-2(1H)-one], the pIC50 in the assay with H358 (KRAS G12C) (Homo sapiens, NCI-H358, 72 h) is over 8.00; in the assay with MIA-Paca2 (KRAS G12C) (Homo sapiens, MIA PaCa-2, 72 h), 7.30 to 8.00.

In the case of `C=CC(=O)N1CCN(c2nc(=O)n(-c3c(C)cccc3C(C)C)c3nc(-c4c(F)ccc5ccoc45)c(F)cc23)[C@@H](C)C1` [Compound 106, 4-((S)-4-acryloyl-2-methylpiperazin-1-yl)-6-fluoro-7-(6-fluorobenzofuran-7-yl)-1-(2-isopropyl-6-methylphenyl)pyrido[2,3-d]pyrimidin-2(1H)-one], the pIC50 in the assay on H358 (KRAS G12C) (Homo sapiens, NCI-H358, 72 h) was 6.30 to 7.00; in the assay on MIA-Paca2 (KRAS G12C) (Homo sapiens, MIA PaCa-2, 72 h), 6.30 to 7.00.
